We go through four compounds from patent US11591297B2, “Compound having PD-L1 expression-suppressing action” (TOHOKU UNIVERSITY, priority 2019, dated 2023).

This assay relates to human PD-L1 promoter. Description: Inhibitory effect of luciferase expression under control of PD-L1 promoter (A549/PD-L1luc luciferase assay, corrected by total protein). The settings on record: Homo sapiens; A549/PD-L1luc cells, 48±4 hours, RLU corrected by total protein amount; read-out: IC50 (50% inhibition value of luciferase expression). Format: cell-based. An excerpt: A reporter vector, pPD-L1luc obtained by the insertion of a human PD-L1 promoter sequence (−2097 to 51) into the multiple cloning site of pGL-3 vector basic (Promega) expresses luciferase under the control of PD-L1 promoter when transfected into animal cells. The pPD-L1luc was transfected into a human non-small cell lung cancer-derived cell line A549 together with pPUR (Clontech) that expresses a puromycin resistance gene (puromycin-N-acetyl-transferase gene), and then cells expressing luciferase which could grow in a puromycin-supplemented medium were selected. The selected cells were named “A549/PD-L1luc cells” and used for luciferase assay as described below.
A test compound was added into a culture liquid containing A549/PD-L1luc cells to observe the influence of the test compound on the amount of luciferase expressed in the cells. Here, it can be considered that when the test compound has a cell cytotoxicity or cell growth inhibitory effect, the total expression level of luciferase is recued due to a reduction in the number of living cells that depends on the concentration of the test compound, and thus the inhibitory effect of luciferase expression under the control of PD-L1 promoter of the test compound cannot be properly evaluated.
A549/PD-L1luc cells were suspended in DMEM containing 10% fetal calf serum (FCS) and 1% penicillin/streptomycin (P/S) (hereinafter, referred to as “DMEM medium”) at 3×10^4 cells/mL to obtain a cell suspension, and the cell suspension was dispensed into each well of a 96-well plate in an amount of 100 μL. In order to perform the assay in triplicate, 3 wells were prepared for control group, and 3 wells were prepared for test compound-treated groups at each concentration. After the dispensation, the 96-well plate was incubated in a CO2 incubator (at 37° C. and 5% CO2) for 24±4 hours.
Each compound of Examples 1 to 6 and Comparative Example 1 was dissolved in dimethylsulfoxide (DMSO) to obtain 50 mmol/L of a compound solution, and the compound solution was stored at −80° C. The compound solution was diluted with DMSO in 2-fold dilution series (usually, in the range of 0.04 mmol/L to 10 mmol/L) to prepare test compound solutions whose concentration varied by two fold for luciferase assay.
Each solution of only DMSO (control) and the diluted test compound (sample) was dispensed into each well containing the cell suspension in an amount of 0.5 μL (200-fold dilution). The solution in each well was mixed with a vortex mixer, and then the 96-well plate was incubated in a CO2 incubator (at 37° C. and 5% CO2) for 48±4 hours. Luciferase Assay Substrate (hereinafter, referred to as “LAS”) supplied in Luciferase Assay Systems (Promega: Cat #E1500) was dissolved in Luciferase Assay Buffer (LAB) to prepare a luciferase reagent. 5× Cell Culture Lysis Reagent (hereinafter, referred to as “CCLR”) was diluted by 5 times with water to prepare 1×CCLR.
After the incubation for 48±4 hours, the medium in each well was completely removed, and 1×CCLR was dispensed into each well in an amount of 50 μL. The plate was allowed to stand at room temperature for 30 minutes, and then 1×CCLR in each well was used as an assay sample for luciferase and total protein amount. The luciferase reagent (100 μL) was placed in a tube for chemiluminescence measurement assay, and the assay sample (20 μL) was added into the tube and mixed with the luciferase reagent to measure chemiluminescence (Relative Luminescence Intensity: RLU) using GloMax 20/20 (Promega).
The above-mentioned assay sample (10 μL) was diluted by 10 times with water (90 μL). Each calibration curve sample was prepared by diluting the BSA solution with water as described in Table 1.
BCA reagent A and BCA reagent B (50:1) supplied in a kit for protein assay were mixed to prepare Working Reagent. Each of the calibration curve samples (Vials I to VI) and the 10-fold diluted assay samples was dispensed into each well of a 96-well plate in an amount of 25 μL, respectively. […]
The IC50 is the midpoint of a concentration-inhibition curve. With `COc1cc(C(=O)N2CCCC(C(=O)Nc3ccc(Oc4ccc(C(F)(F)F)cc4)cc3)C2)ccc1O` (stereo not shown) [Example 3, 1-(4-Hydroxy-3-methoxybenzoyl)-N-(4-(4-(trifluoromethyl)phenoxy)phenyl)piperidine-3-carboxamide], the IC50 is 610 nM. Consider `COc1cc(C(=O)N2CCCC(C(=O)Nc3ccc(Oc4ccc(S(F)(F)(F)(F)F)cc4)cc3)C2)ccc1O` (stereo not shown) [Example 6, 1-(4-Hydroxy-3-methoxybenzoyl)-N-(4-(4-(pentafluorosulfanyl)phenoxy)phenyl)piperidine-3-carboxamide], for which the IC50 turned out to be 610 nM. To `O=C(Nc1ccc(Oc2ccc(C(F)(F)F)cc2)cc1)C1CCCN(C(=O)c2ccc([N+](=O)[O-])cc2)C1` (stereo not shown) [Example 2, 1-(4-Nitrobenzoyl)-N-(4-(4-(trifluoromethyl)phenoxy)phenyl) piperidine-3-carboxamide] belongs 1300 nM; to `O=C(Nc1ccc(Oc2ccc(S(F)(F)(F)(F)F)cc2)cc1)C1CCCN(C(=O)c2ccc([N+](=O)[O-])cc2)C1` (stereo not shown) [Example 5, 1-(4-Nitrobenzoyl)-N-(4-(4-(pentafluorosulfanyl)phenoxy)phenyl)piperidine-3-carboxamide], 620 nM.
